Laboratory results published in PubChem BioAssay (NCI).
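Five compound concentrations were applied to cells in 96-well plates for 48 hours; endpoints were derived by simple linear interpolation of the resulting dose-response curve. Abbreviation: GI50, concentration required for 50% inhibition of growth. TGI: concentration producing complete growth inhibition.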

Legend:
Assay in all cases: growth of human tumour cells (NCI), 48 h
[1] = system: PC-3 prostate
[2] = system: U251 CNS
[3] = system: SR leukemia
[4] = system: NCI-H522 lung
[5] = system: MCF7 breast
[6] = system: A498 renal
[7] = system: MALME-3M melanoma
[8] = system: SK-MEL-28 melanoma
[9] = system: T-47D breast
[10] = system: SF-295 CNS
[11] = system: NCI-H460 lung
[12] = system: BT-549 breast
[13] = system: RXF 393 renal
[14] = system: TK-10 renal
[15] = system: LOX IMVI melanoma
[16] = system: NCI/ADR-RES ovarian
[17] = system: COLO 205 colon
[18] = system: SK-MEL-2 melanoma
[19] = system: UACC-62 melanoma
[20] = system: SW-620 colon
[21] = system: MDA-MB-435
[22] = system: NCI-H23 lung
[23] = system: MOLT-4 leukemia
[24] = system: CAKI-1 renal
[25] = system: UO-31 renal
[26] = system: OVCAR-3 ovarian
[27] = system: HOP-92 NSCLC
[28] = system: HCT-15 colon
[29] = system: 786-0 renal
[30] = system: SNB-75 CNS
[31] = system: DU-145 prostate
[32] = system: MDA-MB-231 breast
[33] = system: SF-268 CNS
[34] = system: IGROV1 ovarian
[35] = system: HS 578T breast
[36] = system: EKVX NSCLC
[37] = system: SK-OV-3 ovarian
[38] = system: A549 NSCLC
[39] = system: CCRF-CEM leukemia
[40] = system: HOP-62 NSCLC
[41] = system: HCC-2998 colon
[42] = system: KM12 colon
[43] = system: NCI-H226 lung
[44] = system: SK-MEL-5 melanoma
[45] = system: SF-539 CNS
[46] = system: OVCAR-8 ovarian
[47] = system: K-562 leukemia
[48] = system: OVCAR-5 ovarian
[49] = system: UACC-257 melanoma
[50] = system: HT29 colon
[51] = system: RPMI-8226 leukemia
[52] = system: SN12C renal
[53] = system: M14 melanoma
[54] = system: HL-60(TB) leukemia
[55] = system: SNB-19 CNS
[56] = system: HCT-116 colon
[57] = system: ACHN renal
[58] = system: OVCAR-4 ovarian

SMILES: C[C@]12CC[C@@H]3c4cc(-c5ccc(F)cc5)c(O)cc4CC[C@H]3[C@@H]1CC[C@@H]2O
- GI50 [1]: 4.63 µM
- TGI [1]: 21.8 µM
- GI50 [2]: 5.54 µM
- TGI [2]: 17.9 µM
- GI50 [3]: 4.75 µM
- TGI [3]: 24.5 µM
- GI50 [4]: 3.79 µM
- TGI [4]: 16.7 µM
- GI50 [5]: 5.21 µM
- TGI [5]: 18.6 µM
- GI50 [6]: 3.39 µM
- TGI [6]: 12.2 µM
- GI50 [7]: 10.1 µM
- TGI [7]: 22 µM
- GI50 [8]: 14.2 µM
- TGI [8]: 28 µM
- GI50 [9]: 4.52 µM
- TGI [9]: 24.6 µM
- GI50 [10]: 3.98 µM
- TGI [10]: 17.6 µM
- GI50 [11]: 4.26 µM
- TGI [11]: 19.6 µM
- GI50 [12]: 6.51 µM
- TGI [12]: 23.3 µM
- GI50 [13]: 2660 nM
- TGI [13]: 5.9 µM
- TGI [14]: 21.7 µM
- GI50 [15]: 9.88 µM
- TGI [15]: 22.1 µM
- GI50 [16]: 6.95 µM
- TGI [16]: 65.9 µM
- GI50 [17]: 4.83 µM
- TGI [17]: 23.9 µM
- GI50 [18]: 5.81 µM
- TGI [18]: 19.8 µM
- GI50 [19]: 12 µM
- TGI [19]: 25.2 µM
- GI50 [20]: 10.1 µM
- TGI [20]: 21.8 µM
- GI50 [21]: 11.8 µM
- TGI [21]: 28.6 µM
- GI50 [22]: 13.8 µM
- TGI [22]: 37.8 µM
- GI50 [23]: 4.88 µM
- TGI [23]: 18.3 µM
- GI50 [24]: 6.47 µM
- TGI [24]: 21.5 µM
- GI50 [25]: 7.01 µM
- TGI [25]: 21.6 µM
- GI50 [26]: 4.02 µM
- TGI [26]: 20.9 µM
- GI50 [27]: 10.6 µM
- TGI [27]: 23.6 µM
- GI50 [28]: 5.61 µM
- TGI [28]: 18.8 µM
- GI50 [29]: 11.9 µM
- TGI [29]: 27.7 µM
- GI50 [30]: 2060 nM
- TGI [30]: 8.38 µM
- GI50 [31]: 12.5 µM
- TGI [31]: 25 µM
- GI50 [32]: 7.86 µM
- TGI [32]: 23.9 µM
- GI50 [33]: 7.29 µM
- TGI [33]: 27.8 µM
- GI50 [34]: 6 µM
- TGI [34]: 20.4 µM
- GI50 [35]: 4.84 µM
- TGI [35]: 22.4 µM
- GI50 [36]: 6.32 µM
- TGI [36]: 20.3 µM
- GI50 [37]: 13.3 µM
- TGI [37]: 28.2 µM
- GI50 [38]: 6.17 µM
- TGI [38]: 22.9 µM
- GI50 [39]: 6.93 µM
- TGI [39]: 29.3 µM
- GI50 [40]: 11.2 µM
- TGI [40]: 28.3 µM
- GI50 [41]: 16.8 µM
- TGI [41]: 38.2 µM
- GI50 [42]: 6.49 µM
- TGI [42]: 20.9 µM
- GI50 [43]: 10.3 µM
- TGI [43]: 30.4 µM
- GI50 [44]: 9.41 µM
- TGI [44]: 21.2 µM
- GI50 [45]: 9.42 µM
- TGI [45]: 22.9 µM
- GI50 [46]: 8.02 µM
- TGI [46]: 37.3 µM
- GI50 [47]: 3.06 µM
- TGI [47]: 18.3 µM
- GI50 [48]: 19.1 µM
- TGI [48]: 39.2 µM
- GI50 [49]: 15.3 µM
- TGI [49]: 29.6 µM
- GI50 [50]: 6.54 µM
- TGI [50]: 20.2 µM
- GI50 [51]: 2780 nM
- TGI [51]: 16.5 µM
- GI50 [52]: 10 µM
- TGI [52]: 22.4 µM
- GI50 [53]: 14.2 µM
- TGI [53]: 34.5 µM
- GI50 [54]: 8.17 µM
- TGI [54]: 28.5 µM
- GI50 [55]: 9.61 µM
- TGI [55]: 22.6 µM
- GI50 [56]: 5.65 µM
- TGI [56]: 22 µM
- GI50 [57]: 5.86 µM
- TGI [57]: 18.9 µM
- GI50 [58]: 4.04 µM
- TGI [58]: 17.1 µM
